Measurements published in patent publication US20240131046A1, “ANTI-VIRAL AGENT” (NATIONAL UNIVERSITY CORPORATION HOKKAIDO UNIVERSITY, priority 2021, published 2024).
Read-outs that look alike come from different tables or passages of the source.

Columns and labels:
[1] = tested on: HCoV-229E; assay: Cell-death suppression effect in coronavirus-infected cells (resazurin); details: for EC50: read-out: HCoV-229E EC50 (50% cell death inhibition concentration)
[2] = tested on: HCoV-OC43
[3] = tested on: HCoV-229E
[4] = Cytotoxicity CC50 (Table 1); assay type: cell-based, human; details: human, MRC5 cells
Method: (§1) In the following tests, culture-cell strain MRC5 cells from the lungs of a human fetus or culture-cell strain Caco-2 cells from a human colon carcinoma were infected using the viruses. For both cell types, 2% FBS/MEM was used as a culture medium. The 2% FBS/MEM was prepared by adding 2% FBS (fetal bovine serum; made by Gibco) and L-glutamine (made by Wako) to MEM (Minimum Essential Medium; made by Nissui).
(§2) Moreover, from values of EC50 and CC50, SI (CC50/EC50) was calculated.

[5] = tested on: HCoV-OC43; assay: Cell-death suppression effect in coronavirus-infected cells (resazurin); details: for EC50: read-out: HCoV-0C43 EC50 (50% cell death inhibition concentration)
[6] = tested on: DENV1; assay: microbe, parasite or virus in culture; assay type: cell-based; details: Dengue virus, DENV1, 120 h; BHK-21 cells, five days, MTT
[7] = tested on: JEV; assay: microbe, parasite or virus in culture; assay type: cell-based; details: Japanese encephalitis virus, 72 h; BHK-21 cells, three days, MTT
[8] = tested on: DENV3; assay: microbe, parasite or virus in culture; assay type: cell-based; details: Dengue virus, DENV3, 120 h; BHK-21 cells, five days, MTT
[9] = tested on: WNV; assay: microbe, parasite or virus in culture; assay type: cell-based; details: West Nile virus, 72 h; BHK-21 cells, three days, MTT
[10] = tested on: Caco-2 cells; details: for concentration at which mild cytotoxicity, not to an extent of cell extinction, was observed: human; for cytotoxicity by microscopic observation: Caco-2 cells infected with SARS-CoV-2
[11] = tested on: DENV4; assay: microbe, parasite or virus in culture; assay type: cell-based; details: Dengue virus, DENV4, 120 h; BHK-21 cells, five days, MTT
[12] = tested on: HCoV-229E and HCoV-OC43; assay: Library screening for suppression of cell death of cells infected by a human coronavirus; assay type: cell-based
Method: HCoV-229E (ATCC: VR-740) and HCoV-OC43 (ATCC: VR-1558) obtained from the ATCC were used as coronaviruses that routinely infect humans (human coronaviruses: HCoV).
as §1
HCoV-229E and HCoV-OC43 were used as the human coronavirus.

[13] = tested on: SARS-CoV-2; assay: Viral-RNA replication suppression in infected Caco-2 cells (qRT-PCR); details: for EC50: Severe acute respiratory syndrome coronavirus 2, Caco-2, 48 h, read-out: SARS-CoV-2 EC50
[14] = tested on: YFV; assay: microbe, parasite or virus in culture; assay type: cell-based; details: Yellow fever virus, BHK-21, 72 h, read-out: EC50 YFV
[15] = tested on: DENV2; assay: microbe, parasite or virus in culture; assay type: cell-based; details: Dengue virus, DENV2, 96 h; BHK-21 cells, four days, MTT
[16] = tested on: SARS-CoV-2; assay: Time-of-addition test in infected Caco-2 cells (viral RNA, TCID50 titration); assay type: cell-based; details: 1 μM, treatment timing Whole and Post-Entry
[17] = tested on: YFV; details: non-patent literature 5; read-out: antiviral activity (EC50) against YFV; cited from earlier work
[18] = tested on: MRC5 cells; assay: Cytotoxicity CC50 (Table 1); assay type: cell-based, human
Method: as §1, §2

[19] = tested on: ZIKV; assay: microbe, parasite or virus in culture; assay type: cell-based; details: Zika virus, 72 h; BHK-21 cells, three days, MTT

| SMILES | EC50 ([1]; Human coronavirus 229E, 72 h) | HCoV-0C43 SI (CC50/EC50) [2] | HCoV-229E SI (CC50/EC50) [3] | EC50 ([5]; Betacoronavirus 1, OC43, 72 h) | EC50 [6] | EC50 [7] | EC50 [8] | EC50 [9] | concentration at which mild cytotoxicity, not to an extent of cell extinction, was observed [10] | EC50 [11] | antiviral activity (suppressing cell death of infected cells) in library screening [12] | EC50 [13] | EC50 [15] | cytotoxicity by microscopic observation [10] | CC50 [4] | HCoV-229E SI (CC50/EC50) [1] | antiviral activity (suppressing cell death of infected cells) in library screening ([12]; HCoV-229E and HCoV-OC43) | also measured |
| --- | --- | --- | --- | --- | --- | --- | --- | --- | --- | --- | --- | --- | --- | --- | --- | --- | --- | --- |
| CCC(CC)COC(=O)[C@H](C)N[P@](=O)(OC[C@H]1O[C@@](C#N)(c2ccc3c(N)ncnn23)[C@H](O)[C@@H]1O)Oc1ccccc1 [GS-5734, remdesivir, reference compound] | 72 nM | >221.1 | >694.1 | 230 nM |  |  |  |  |  |  |  |  |  |  |  |  |  | CC50 ([4]; read-out: CC50): > 50000 nM |
| Nc1ncnc2c1ccn2[C@@H]1O[C@H](CO)[C@@H](O)[C@H]1O [HUP1136, tubercidin] | < 78 nM | 5.9 | >8.5 |  | > 16000 nM | < 130 nM | < 125 nM | 200 nM | ≥ 1110 nM | > 16000 nM | had antiviral activity | 87 nM |  |  |  |  |  | EC50 [14]: 150 nM |
| N#Cc1cn([C@@H]2O[C@H](CO)[C@@H](O)[C@H]2O)c2ncnc(N)c12 [HUP1109, 5-cyanotubercidin] | 2300 nM |  | 0.26 | > 10000 nM |  |  |  |  |  |  | had antiviral activity | 200 nM | > 20000 nM | strong cytotoxicity | 590 nM |  |  |  |
| Nc1ncnc2c1c([N+](=O)[O-])cn2[C@@H]1O[C@H](CO)[C@@H](O)[C@H]1O [HUP1078, 5-nitrotubercidin] | 2000 nM |  |  | > 10000 nM |  |  |  |  | ≥ 123 nM |  |  | 100 nM | > 20000 nM |  | 330 nM | 0.17 | had antiviral activity |  |
| Nc1ncnc2c1c(CO)cn2[C@@H]1O[C@H](CO)[C@@H](O)[C@H]1O [HUP1108, 5-hydroxymethyltubercidin] |  |  |  | 350 nM |  |  |  |  | 10000 nM |  |  | 570 nM |  | concerns regarding cytotoxicity were low | > 50000 nM | >117 | had antiviral activity | relative viral-RNA amount ([16]; Caco-2 cells, 24 hours, FIG. 3): reduced; viral titer (TCID50) ([16]; supernatant titrated on VeroE6/TMPRSS2 cells, FIG. 4): reduced; concentration range in which virus proliferation was suppressed without cytotoxicity ([13]; Caco-2 cells): lower than 3.33 μM; HCoV-0C43 SI (CC50/EC50) [5]: >141 |
| Nc1ncnc2c1c(/C=N\O)cn2[C@@H]1O[C@H](CO)[C@@H](O)[C@H]1O [HUP1069, 5-formyltubercidin oxime] | < 78 nM | 13 | >9.5 | 55 nM | > 16000 nM | < 130 nM | > 16000 nM | < 130 nM |  | > 16000 nM | had antiviral activity | 200 nM | < 125 nM |  |  |  |  |  |
| N#C[C@@]1(c2ccc3c(N)ncnn23)O[C@H](CO)[C@@H](O)[C@H]1O [GS-441524, reference compound] |  |  |  |  |  |  |  |  |  |  |  |  |  |  |  |  |  | EC50 ([1]; cultured three days, resazurin): 3100 nM; EC50 [17]: 11000 nM; CC50 [18]: > 50000 nM; EC50 ([5]; cultured three days, resazurin): 3700 nM |
| Nc1c2ccn([C@@H]3O[C@H](CO)[C@@H](O)[C@H]3O)c2nc[n+]1[O-] [HUP1077, tubercidin N-oxide] | 4000 nM |  |  |  | 3200 nM | 6900 nM | 2300 nM | 10700 nM |  | 2500 nM |  | 3500 nM |  | concerns regarding cytotoxicity were low |  | 6.1 | had antiviral activity | HCoV-0C43 SI (CC50/EC50) [5]: 5.6; EC50 [19]: 6300 nM |
